Measurements taken from ChEMBL document CHEMBL5528073, “Design, Synthesis, and Biological Evaluation of Pierardine Derivatives as Novel Brain-Penetrant and In Vivo Potent NMDAR-GluN2B Antagonists for Ischemic Stroke Treatment” (J Med Chem, 2024).

Columns and labels:
[1] = molecular target: Glutamate receptor ionotropic, NMDA 2B (Rattus norvegicus, UniProt Q00960)
[2] = molecular target: Glutamate receptor ionotropic, NMDA 2B (Rattus norvegicus) (UniProt Q00960); assay: Antagonist activity at rat GluN2B NMDA receptor at 50 nM incubated for 120 mins by competitive binding assay relative to control; parameters: scale not given: the % may be the effect or the level left
Sequence of Glutamate receptor ionotropic, NMDA 2B (Rattus norvegicus) (Q00960 27-1482 limits assumed): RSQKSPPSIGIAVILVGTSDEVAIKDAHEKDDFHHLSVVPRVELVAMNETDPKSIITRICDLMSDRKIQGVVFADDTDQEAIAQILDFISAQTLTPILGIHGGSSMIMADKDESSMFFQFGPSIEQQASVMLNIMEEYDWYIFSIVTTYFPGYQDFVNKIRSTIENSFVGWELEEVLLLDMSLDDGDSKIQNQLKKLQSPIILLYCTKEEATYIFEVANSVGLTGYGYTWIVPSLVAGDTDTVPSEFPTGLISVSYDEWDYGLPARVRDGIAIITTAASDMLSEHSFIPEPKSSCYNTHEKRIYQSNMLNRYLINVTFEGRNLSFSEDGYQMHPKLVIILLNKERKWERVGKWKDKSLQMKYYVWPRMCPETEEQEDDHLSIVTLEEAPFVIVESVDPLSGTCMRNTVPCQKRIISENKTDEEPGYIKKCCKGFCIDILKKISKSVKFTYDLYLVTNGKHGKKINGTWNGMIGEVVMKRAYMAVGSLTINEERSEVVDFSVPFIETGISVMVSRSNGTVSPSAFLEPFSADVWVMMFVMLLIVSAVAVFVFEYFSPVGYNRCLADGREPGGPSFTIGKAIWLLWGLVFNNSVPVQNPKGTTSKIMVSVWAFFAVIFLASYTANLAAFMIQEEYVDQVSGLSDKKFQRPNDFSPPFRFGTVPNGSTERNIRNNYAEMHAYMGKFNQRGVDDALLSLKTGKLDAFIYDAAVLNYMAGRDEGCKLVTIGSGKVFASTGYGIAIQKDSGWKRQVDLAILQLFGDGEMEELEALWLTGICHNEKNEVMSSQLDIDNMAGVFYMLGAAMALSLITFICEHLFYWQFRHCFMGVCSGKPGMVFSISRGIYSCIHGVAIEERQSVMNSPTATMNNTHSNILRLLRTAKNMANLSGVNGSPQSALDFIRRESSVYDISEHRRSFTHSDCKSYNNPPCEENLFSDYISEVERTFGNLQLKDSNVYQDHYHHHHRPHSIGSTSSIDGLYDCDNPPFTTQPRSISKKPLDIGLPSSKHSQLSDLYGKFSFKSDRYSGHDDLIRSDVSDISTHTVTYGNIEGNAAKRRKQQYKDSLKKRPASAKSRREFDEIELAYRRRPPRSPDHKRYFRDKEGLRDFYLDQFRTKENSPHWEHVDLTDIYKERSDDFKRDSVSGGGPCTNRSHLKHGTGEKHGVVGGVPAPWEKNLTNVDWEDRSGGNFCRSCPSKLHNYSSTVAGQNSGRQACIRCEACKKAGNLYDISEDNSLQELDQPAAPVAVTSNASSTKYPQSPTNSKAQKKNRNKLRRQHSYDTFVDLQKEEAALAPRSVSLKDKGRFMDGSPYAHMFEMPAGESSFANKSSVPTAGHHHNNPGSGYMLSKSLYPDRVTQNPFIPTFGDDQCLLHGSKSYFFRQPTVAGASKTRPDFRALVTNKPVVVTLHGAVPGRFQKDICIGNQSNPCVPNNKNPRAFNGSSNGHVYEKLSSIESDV

[3] = molecular target: Voltage-gated inwardly rectifying potassium channel KCNH2 (Homo sapiens, UniProt Q12809); assay: Inhibition of hERG expressed in HEK293 cells by whole-cell manual patch-clamp assay; type: toxicity, cell-based
[4] = molecular target: Glutamate NMDA receptor; GRIN1/GRIN2B (Homo sapiens, UniProt Q05586+Q13224)
Sequence of Glutamate NMDA receptor; GRIN1/GRIN2B (Q13224 whole entry, other chains not shown): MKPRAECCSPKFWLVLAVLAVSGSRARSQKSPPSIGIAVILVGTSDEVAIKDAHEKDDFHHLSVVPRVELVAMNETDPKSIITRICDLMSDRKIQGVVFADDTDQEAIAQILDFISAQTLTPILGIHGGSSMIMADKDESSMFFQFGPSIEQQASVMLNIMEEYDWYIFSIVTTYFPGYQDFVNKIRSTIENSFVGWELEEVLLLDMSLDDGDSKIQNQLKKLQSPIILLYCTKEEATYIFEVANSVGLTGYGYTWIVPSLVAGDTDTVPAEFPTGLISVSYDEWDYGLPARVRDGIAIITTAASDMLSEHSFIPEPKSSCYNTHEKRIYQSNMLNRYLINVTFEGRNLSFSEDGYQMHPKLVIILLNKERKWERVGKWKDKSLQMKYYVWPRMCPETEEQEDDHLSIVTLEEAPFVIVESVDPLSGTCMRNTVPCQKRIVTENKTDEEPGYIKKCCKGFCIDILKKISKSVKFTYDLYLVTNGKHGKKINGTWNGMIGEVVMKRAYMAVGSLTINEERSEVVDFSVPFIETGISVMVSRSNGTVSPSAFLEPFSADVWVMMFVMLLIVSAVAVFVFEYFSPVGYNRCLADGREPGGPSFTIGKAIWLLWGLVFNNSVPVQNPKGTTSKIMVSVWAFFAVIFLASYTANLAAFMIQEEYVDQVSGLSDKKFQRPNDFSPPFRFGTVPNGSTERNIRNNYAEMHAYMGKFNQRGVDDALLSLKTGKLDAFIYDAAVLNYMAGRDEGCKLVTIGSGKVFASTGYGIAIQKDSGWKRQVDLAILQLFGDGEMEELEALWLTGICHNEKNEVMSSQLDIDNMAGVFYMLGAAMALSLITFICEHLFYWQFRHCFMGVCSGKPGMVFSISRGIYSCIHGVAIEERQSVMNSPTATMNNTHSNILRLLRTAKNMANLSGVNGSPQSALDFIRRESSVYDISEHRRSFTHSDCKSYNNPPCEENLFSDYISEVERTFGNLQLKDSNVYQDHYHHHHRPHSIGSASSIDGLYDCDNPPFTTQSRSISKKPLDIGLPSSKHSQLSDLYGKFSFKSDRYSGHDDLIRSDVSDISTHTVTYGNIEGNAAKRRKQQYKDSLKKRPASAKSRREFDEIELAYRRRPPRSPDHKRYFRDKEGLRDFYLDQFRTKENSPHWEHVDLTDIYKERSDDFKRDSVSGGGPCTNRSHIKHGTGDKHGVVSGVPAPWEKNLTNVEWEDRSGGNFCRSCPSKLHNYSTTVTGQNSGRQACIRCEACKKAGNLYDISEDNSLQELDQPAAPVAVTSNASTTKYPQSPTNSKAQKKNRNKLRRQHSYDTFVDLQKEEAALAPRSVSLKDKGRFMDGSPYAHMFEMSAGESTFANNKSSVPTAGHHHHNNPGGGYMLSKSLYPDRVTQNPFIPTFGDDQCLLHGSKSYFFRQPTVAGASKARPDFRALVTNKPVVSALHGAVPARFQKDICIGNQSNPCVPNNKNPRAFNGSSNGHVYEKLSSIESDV
Description: Antagonist activity at GluN1/GluN2B receptor (unknown origin) expressed in HEK293 cells assessed as inhibition of receptor-mediated current by patch clamp assay

[5] = Cytotoxicity against mouse primary neuron cells assessed as reduction in cell viability incubated for 48 hrs by CCK-8 assay
[6] = Cytotoxicity against African green monkey Vero cells assessed as reduction in cell viability incubated for 48 hrs by CCK-8 assay
[7] = Cytotoxicity against mouse L929 cells assessed as reduction in cell viability incubated for 48 hrs by CCK-8 assay
[8] = Cytotoxicity against HEK293 cells assessed as reduction in cell viability incubated for 48 hrs by CCK-8 assay; details: human
[9] = Neuroprotective activity against NMDA-induced cell injury in rat Hippocampal neuron cells assessed as cell viability at 0.1 uM preincubated with compound for 6 hrs followed by NMDA-addition and measured after 0.5 hrs by MTT assay relative to control; details: Hippocampal neurone, 6.5 h, read-out: Activity
[10] = Neuroprotective activity against NMDA-induced cell injury in rat Hippocampal neuron cells assessed as cell viability at 10 uM preincubated with compound for 6 hrs followed by NMDA-addition and measured after 0.5 hrs by MTT assay relative to control; details: Hippocampal neurone, 6.5 h, read-out: Activity
cells = details: Rattus norvegicus, Hippocampal neurone, 6.5 h, read-out: Activity

Sequence of Glutamate receptor ionotropic, NMDA 2B (Q00960 whole entry): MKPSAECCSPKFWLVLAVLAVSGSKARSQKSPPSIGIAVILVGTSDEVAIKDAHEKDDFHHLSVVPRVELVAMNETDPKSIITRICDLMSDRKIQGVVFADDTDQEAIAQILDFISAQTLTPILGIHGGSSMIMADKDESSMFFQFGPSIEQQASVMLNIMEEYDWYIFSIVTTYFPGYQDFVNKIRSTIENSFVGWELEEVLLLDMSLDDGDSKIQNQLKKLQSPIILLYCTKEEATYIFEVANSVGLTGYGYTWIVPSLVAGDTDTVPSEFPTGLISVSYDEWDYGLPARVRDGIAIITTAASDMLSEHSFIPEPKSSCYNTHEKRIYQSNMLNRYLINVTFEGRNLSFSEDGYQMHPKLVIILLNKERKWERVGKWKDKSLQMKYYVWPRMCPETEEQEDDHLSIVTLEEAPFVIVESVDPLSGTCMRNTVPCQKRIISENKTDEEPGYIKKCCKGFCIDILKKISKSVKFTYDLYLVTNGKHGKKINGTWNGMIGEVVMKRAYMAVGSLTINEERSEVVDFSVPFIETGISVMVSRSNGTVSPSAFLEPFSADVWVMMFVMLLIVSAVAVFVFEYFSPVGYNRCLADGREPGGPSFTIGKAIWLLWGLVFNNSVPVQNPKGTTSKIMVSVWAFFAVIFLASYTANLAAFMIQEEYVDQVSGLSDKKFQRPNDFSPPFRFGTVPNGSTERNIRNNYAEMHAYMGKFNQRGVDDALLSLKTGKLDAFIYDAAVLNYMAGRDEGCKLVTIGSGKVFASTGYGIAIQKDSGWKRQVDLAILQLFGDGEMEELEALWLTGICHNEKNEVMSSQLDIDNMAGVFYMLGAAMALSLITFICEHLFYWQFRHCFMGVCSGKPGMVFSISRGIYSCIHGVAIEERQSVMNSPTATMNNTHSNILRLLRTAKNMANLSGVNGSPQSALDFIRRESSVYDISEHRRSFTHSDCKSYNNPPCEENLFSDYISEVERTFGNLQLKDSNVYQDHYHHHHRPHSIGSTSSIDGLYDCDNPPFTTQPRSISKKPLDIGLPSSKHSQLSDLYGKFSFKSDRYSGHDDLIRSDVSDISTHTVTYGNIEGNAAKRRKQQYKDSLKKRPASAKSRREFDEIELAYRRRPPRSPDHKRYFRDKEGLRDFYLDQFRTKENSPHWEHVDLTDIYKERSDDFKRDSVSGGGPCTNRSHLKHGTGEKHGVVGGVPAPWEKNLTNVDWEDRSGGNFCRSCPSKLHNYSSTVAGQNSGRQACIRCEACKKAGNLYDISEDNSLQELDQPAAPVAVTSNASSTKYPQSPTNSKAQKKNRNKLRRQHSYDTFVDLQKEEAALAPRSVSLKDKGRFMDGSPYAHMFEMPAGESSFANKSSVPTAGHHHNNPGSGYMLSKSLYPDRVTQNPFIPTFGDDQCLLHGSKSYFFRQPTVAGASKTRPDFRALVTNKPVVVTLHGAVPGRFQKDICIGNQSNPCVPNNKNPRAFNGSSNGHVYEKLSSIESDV

SMILES	Ki [1] [nM]	also measured
Cc1ccc(N2CCN(CCCC3OC(=O)c4ccccc43)CC2)cc1C (stereo unspecified)	29.2	
COc1cccc(N2CCN(CCCC3OC(=O)c4ccccc43)CC2)c1 (stereo unspecified)	30.9	
COc1cccc(C(=O)N2CCN(CCCC3OC(=O)c4ccccc43)CC2)c1 (stereo unspecified)	34.6	
O=C1OC(CCCN2CCc3ccccc3C2)c2ccccc21 (stereo unspecified)		Activity [2]: 22.2%
O=C1OC(CCCN2CCN(c3ccc(Br)cc3)CC2)c2ccccc21 (stereo unspecified)	26.5	
O=C1OC(CCCN2C[C@H]3C[C@@]3(c3ccc(Cl)c(Cl)c3)C2)c2ccccc21 (stereo partly specified)	33.6	Activity ([2]; filed as antagonist): 76%
CS(=O)(=O)Nc1ccc2c(c1)C(=O)OC2CCCN1CCN(c2ccc(O)cc2)CC1 (stereo unspecified)	19.6	
Cc1cccc2cc(C(=O)N3CCN(CCCC4OC(=O)c5ccccc54)CC3)[nH]c12 (stereo unspecified)	27.9	
O=C1OC(CCCN2CCN(c3ccccc3C(F)(F)F)CC2)c2ccccc21 (stereo unspecified)	25.9	
O=C1OC(CCCN2CCN(c3ccc(C(F)(F)F)cc3)CC2)c2ccccc21 (stereo unspecified)	42.9	
O=C1OC(CCCN2CCN(c3ccccc3F)CC2)c2ccccc21 (stereo unspecified)	23.6	
O=C1OC(CCCN2CCN(C(=O)c3cc4ccncc4[nH]3)CC2)c2ccccc21 (stereo unspecified)	25.4	
Cc1ccc(C(=O)N2CCN(CCCC3OC(=O)c4cc(O)ccc43)CC2)cc1 (stereo unspecified)	36.2	
O=C1OC(CCCN2CCN(c3ccc(Cl)cc3)CC2)c2ccccc21 (stereo unspecified)	25.6	
O=C1OC(CCCN2CCN(c3ncccn3)CC2)c2ccccc21 (stereo unspecified)		Activity [2]: 30.9%
O=C1OC(CCCN2CCN(C(=O)c3ccccc3)CC2)c2ccccc21 (stereo unspecified)	32.8	
O=C1OC(CCCN2CCN(C(=O)c3cc4cnccc4[nH]3)CC2)c2ccccc21 (stereo unspecified)	32.8	
O=C1OC(CCCN2CCN(c3csc4ccccc34)CC2)c2ccccc21 (stereo unspecified)		Activity [2]: 36.6%
O=C1OC(CCCN2CCc3ccccc32)c2ccccc21 (stereo unspecified)		Activity [2]: 24.5%; Activity ([2]; filed as antagonist): 47.1%
O=C1OC(CCCN2CCc3ccccc3C2c2ccccc2)c2ccccc21 (stereo unspecified)		Activity [2]: 36.4%
CN(C)CCCC1OC(=O)c2ccccc21 (stereo unspecified)	114	IC50 at 48 h [5]: > 300000 nM; IC50 at 48 h [6]: > 300000 nM; IC50 at 48 h [7]: > 300000 nM; IC50 at 48 h [8]: > 300000 nM; IC50 [4]: > 10000 nM

SMILES	Ki [1] [nM]	also measured
O=C1OC(CCCN2CCN(c3cccc(Cl)c3)CC2)c2ccccc21 (stereo unspecified)	20.8	
CC(C(O)c1ccc(O)cc1)N1CCC(Cc2ccccc2)CC1 (stereo unspecified) [IFENPRODIL]		viability at 0.1 µM [9]: 65.9%; viability at 10 µM [10]: 84.8%; viability at 1 µM (cells): 77%
O=C1OC(CCCN2CCN(c3ccccn3)CC2)c2ccccc21 (stereo unspecified)		Activity ([2]; filed as antagonist): 42.2%
Cc1ccc2c(c1)CN(CCCC1OC(=O)c3ccccc31)CC2 (stereo unspecified)		Activity [2]: 32.4%
O=C1OC(CCCN2CCN(C(=O)c3ccc(F)cc3)CC2)c2ccccc21 (stereo unspecified)	31.1	
O=C1OC(CCCN2CCN(C(=O)c3ccc(C(F)(F)F)cc3)CC2)c2ccc(O)cc21 (stereo unspecified)	32.1	
O=C1OC(CCCN2CCN(C(=O)c3ccccn3)CC2)c2ccccc21 (stereo unspecified)	45.1	
O=C1OC(CCCN2CCN(C(=O)c3cc4ccc(Cl)cc4[nH]3)CC2)c2ccccc21 (stereo unspecified)	16.7	
O=C1OC(CCCN2Cc3ccccc3C2)c2ccccc21 (stereo unspecified)		Activity [2]: 26.7%
O=C1OC(CCCN2CCN(C(=O)c3nc4ccccc4[nH]3)CC2)c2ccccc21 (stereo unspecified)	73.4	
NC(=O)c1coc2ccc(N3CCN(CCCC4OC(=O)c5ccccc54)CC3)cc12 (stereo unspecified)		Activity ([2]; filed as antagonist): 47.1%
COc1ccc2[nH]c(C(=O)N3CCN(CCCC4OC(=O)c5ccccc54)CC3)cc2c1 (stereo unspecified)	26	
O=C1OC(CCCN2CCN(C(=O)c3cccnc3)CC2)c2ccccc21 (stereo unspecified)	23.5	
Cc1cccc(N2CCN(CCCC3OC(=O)c4ccccc43)CC2)c1 (stereo unspecified)	36.8	
O=C1OC(CCCN2CCN(c3ccc(O)cc3)CC2)c2ccccc21 (stereo unspecified)	26.8	
COc1ccc(N2CCN(CCCC3OC(=O)c4ccccc43)CC2)cc1 (stereo unspecified)	24.3	
COc1ccc(C(=O)N2CCN(CCCC3OC(=O)c4ccccc43)CC2)cc1 (stereo unspecified)	46.7	
O=C1OC(CCCN2CCN(c3nsc4ccccc34)CC2)c2ccccc21 (stereo unspecified)		Activity [2]: 15.7%
COc1ccc2cc(C(=O)N3CCN(CCCC4OC(=O)c5ccccc54)CC3)[nH]c2c1 (stereo unspecified)	53.2	
O=C1OC(CCCN2CCN(C(=O)c3cc4cccnc4[nH]3)CC2)c2ccccc21 (stereo unspecified)	49.7	

The remaining molecules from weak to strong by Ki [1], led by results:

Ki [1] [nM]	SMILES	also measured
15.2	CS(=O)(=O)Nc1ccc2c(c1)C(=O)OC2CCCN1CCN(C(=O)c2ccc(C(F)(F)F)cc2)CC1 (stereo unspecified)	
15.1	Cc1ccc(N2CCN(CCCC3OC(=O)c4ccc(O)cc43)CC2)cc1 (stereo unspecified)	
13.9	O=C1OC(CCCN2CCN(c3ccccc3)CC2)c2ccccc21 (stereo unspecified)	Activity ([2]; filed as antagonist): 75.4%
13.4	O=C1OC(CCCN2CCN(C(=O)c3c[nH]cn3)CC2)c2ccccc21 (stereo unspecified)	
13.2	Cc1ccc(C(=O)N2CCN(CCCC3OC(=O)c4cc(NS(C)(=O)=O)ccc43)CC2)cc1 (stereo unspecified)	
13	O=C1OC(CCCN2CCN(C(=O)c3cc[nH]c3)CC2)c2ccccc21 (stereo unspecified)	
12.7	O=C1OC(CCCN2CCN(C(=O)c3ccc(Cl)cc3)CC2)c2ccccc21 (stereo unspecified)	
12.4	Cc1ccc(N2CCN(CCCC3OC(=O)c4cc(NS(C)(=O)=O)ccc43)CC2)cc1 (stereo unspecified)	
12.1	O=C1OC(CCCN2CCN(C(=O)c3ccncc3)CC2)c2ccccc21 (stereo unspecified)	
11.3	Cc1ccccc1N1CCN(CCCC2OC(=O)c3ccccc32)CC1 (stereo unspecified)	
9.39	O=C1OC(CCCN2CCN(c3ccc(F)cc3)CC2)c2ccccc21 (stereo unspecified)	
8.22	O=C1OC(CCCN2CCN(C(=O)c3ccc(C(F)(F)F)cc3)CC2)c2cc(O)ccc21 (stereo unspecified)	
8.15	COc1ccccc1N1CCN(CCCC2OC(=O)c3ccccc32)CC1 (stereo unspecified)	
7.97	O=C1OC(CCCN2CCN(C(=O)c3cc4ccccc4[nH]3)CC2)c2ccccc21 (stereo unspecified)	
6.26	O=C1OC(CCCN2CCN(c3ccc(O)cc3)CC2)c2ccc(O)cc21 (stereo unspecified)	
6.12	Cc1ccc(N2CCN(CCCC3OC(=O)c4ccccc43)CC2)cc1 (stereo unspecified)	
4.23	CS(=O)(=O)Nc1ccc2c(c1)C(=O)OC2CCCN1CCN(C(=O)c2cc3cccc(Cl)c3[nH]2)CC1 (stereo unspecified)	
3.77	O=C1OC(CCCN2CCN(c3ccc([N+](=O)[O-])cc3)CC2)c2ccccc21 (stereo unspecified)	
2.89	CC(C)c1ccc(N2CCN(CCCC3OC(=O)c4ccccc43)CC2)cc1 (stereo unspecified)	
2.6	O=C1OC(CCCN2CCN(C(=O)c3ccc(C(F)(F)F)cc3)CC2)c2ccccc21 (stereo unspecified)	
1.34	Cc1ccc(C(=O)N2CCN(CCCC3OC(=O)c4ccccc43)CC2)cc1 (stereo unspecified)	
1.28	O=C(O)c1ccccc1C(O)CCCN1CCN(C(=O)C2Cc3cccc(Cl)c3N2)CC1 (stereo unspecified)	
1.12	O=C1OC(CCCN2CCN(C(=O)c3cc4cccc(Cl)c4[nH]3)CC2)c2cc(O)ccc21 (stereo unspecified)	inhibition (INH) [3]: Active; IC50 [4]: 183 nM
